Test system: Iex-1
Test: Iex-1 gene expression by qRT-PCR in hypoxic NIH 3T3 fibroblasts
Assay type: cell-based, mouse
Source text: To determine the expression of Iex-1 and Vegf-A in vitro, NIH 3T3 cells (ATCC, Manassas, Va.) were used and subjected to hypoxia and normoxia for different lengths of time as described elsewhere (Yang et al., Kidney Int., 85:289-306 (2014) and Janardhanan et al., Kidney Int., 84:338-52 (2013)). Cells were harvested for qRT-PCR analysis.
Cells or tissue were stored in a RNA stabilizing/cell lysis solution (Qiagen, Gaithersburg, Md.) (Yang et al., Kidney Int., 85:289-306 (2014) and Janardhanan et al., Kidney Int., 84:338-52 (2013)). Specimens were homogenized, and total RNA was extracted and isolated via the miRNEasy Mini kit (Qiagen). Culture cells were trypsinized and stored in Qiazol lysis regent and processed using the RNEasy Mini kit.
Gene expression was quantified using qRT-PCR as described elsewhere (Yang et al., Kidney Int., 85:289-306 (2014) and Janardhanan et al., Kidney Int., 84:338-52 (2013)).

`C=C1/C(=C\C=C2/CCC[C@]3(C)[C@@H]([C@H](C)CCCC(C)(C)O)CC[C@@H]23)C[C@@H](O)C[C@@H]1O` [calcitriol] was tested, and the “average decrease in Iex-1 expression vs. controls” value (1 μM calcitriol, hypoxic fibroblasts, 24 hours, control PBS alone) was 56%, the “average Iex-1 expression (qRT-PCR)” value (1 μM calcitriol, hypoxic fibroblasts, 24 hours, control 8.62+1.52) was 3.84+2.2 and the “optimal dose of calcitriol required to reduce Iex-1 expression” value (determined using a dose response curve) was 1 µM.
